The results in this text go back to US8039430B2 (University of Wollongong, priority 2005, dated 2011).

Read-outs that look alike come from different tables or passages of the source. Square brackets hold non-standard residues; d marks the D form. Peptide text beside a SMILES is read from it. * marks the point of attachment. Fmoc = O=C(OCC1c2ccccc2-c2ccccc21)*; AllylGly = C=CC[C@H](N)C(=O)O

The test system of one assay is E.f987. The assay can be described thus: Antibacterial screening (MIC) of compounds of Example 2, E.f987. The assay is classed as cell-based, Enterococcus faecium. Conditions: Example 2 compounds, enterococci strain E.f987; for MIC: Enterococcus faecium, read-out: Antibacterial activity μg/mL, E.f987.
The subject of a further assay is E.f243. The assay can be described thus: Antibacterial screening (MIC) of compounds of Example 2, E.f243. The assay is classed as cell-based, Enterococcus faecium. Conditions: Example 2 compounds, enterococci strain E.f243; for MIC: Enterococcus faecium, read-out: Antibacterial activity μg/mL, E.f243. How it is done:
(§1) • All assays used the Staphylococcus aureus strain ATCC 6538P. • Assays described in Chapter 5 additionally used the vancomycin-resistant enterococci and vancomycin-sensitive enterococci strains Ef243, Ef449, Ef820 and Ef487. Culture Media • Mueller-Hinton Broth Medium (MHB): MHB (Oxoid CM405) was prepared with final concentrations of […] MgCl2 and 2 μg/mL CaCl2. Culture medium was pre-warmed for approximately 2-3 h at 37° C. before use. • Mueller-Hinton Agar Medium (MHA): MMB containing 1.5% Agar (Merck Agar 1.01614). Maintenance of Bacteria • From a thawed cryovial, the bacteria was streaked onto MHA and the plate incubated overnight at 37° C. • From this plate, 10 cryovials were prepared by looping several colonies into 0.5 mL of 20% glycerol solution. The cryovials were immediately stored at −140° C. Preparation of Seed Cultures • A cryovial was removed from −140° C. storage and thawed at room temperature. • An MHA plate was streaked with a loopful of bacterial suspension and incubated overnight at 37° C. to create a parent plate (P1). • A daughter plate (D1) was streaked from the parent plate and incubated overnight at 37° C. […] The second parent plate (P2) was used to generate two additional daughter plates using the procedure outlined above before being discarded. • Cryovials were used twice to prepare parent plates (P1 and P2) before being discarded. […] A vancomycin control set (triplicate) and a compound negative control set (triplicate) were also included on each plate (FIG. 1). • The inoculated culture medium was incubated at 37° C. for 30 min, with shaking at 130 rpm. • Using a multichannel pipette, the contents of the first row were mixed before 50 μL was transferred to the second row. The pipette tips were changed and the process repeated by 50 μL of the mixed broth solutions in the second row being transferred to the third row. This process was repeated until the last row contained either the diluted test compound or a control (vancomycin or compound-negative). […] Antibacterial Testing of Compounds of Example 2 Introduction
(§2) The specific testing procedures and protocols are outlined in the section “Antibacterial Screening Methodology for the Compounds of Example 2”.
(§3) Vancomycin was used as the standard/control.

The test system of the next assay is E.f449. The assay can be described thus: Antibacterial screening (MIC) of compounds of Example 2, E.f449. Format: cell-based, Enterococcus faecium. Conditions: Example 2 compounds, enterococci strain E.f449; for MIC: Enterococcus faecium, read-out: Antibacterial activity μg/mL, E.f449. How it is done:
as §1, §2, §3

Assay [1] concerns Staphylococcus aureus strain ATCC 6538P. The assay can be described thus: Antibacterial screening (MIC) of compounds of Example 2, S. aureus, Mueller-Hinton broth. Conditions: S. aureus; for MIC: Staphylococcus aureus, ATCC6538P. Format: cell-based. How it is done:
Antibacterial Screening Methodology for Compounds of Example 2
as §1, §2
The antibacterial activity results are measured by minimum inhibitory concentration (MIC), which is the lowest concentration of compound necessary to prevent bacterial growth.

A further assay has as its system E.f820. The assay is described as follows: Antibacterial screening (MIC) of compounds of Example 2, E.f820. Conditions: Example 2 compounds, fully vancomycin-resistant strain E.f820; for MIC: read-out: Antibacterial activity μg/mL, E.f820. Format: cell-based, Enterrococci faecium. How it is done:
as §1, §2, §3

[2] abbreviates: Example 2 compounds (linear cationic peptides), vancomycin-susceptible strain, read-out: Antibacterial activity μg/mL, S.a.
The mark [3] stands for this setting: Example 2 compounds (linear cationic peptides), vancomycin-susceptible strain.

Turning to `C=CCOc1ccc(C[C@H](NC(=O)[C@@H](CCCNC(=N)N)NC(=O)COc2ccc3ccccc3c2-c2c(OCC=C)ccc3ccccc23)C(=O)OC)cc1.Cl` (atropisomer, axis not shown) [Compound 120], the MIC was determined as 62.5 µg/mL in the assay with E.f987; 62.5 µg/mL with E.f243; 62.5 µg/mL in the assay on E.f449; 3.9 µg/mL in assay [1] (setting [2]); 62.5 µg/mL in the assay with E.f820.
Turning to `C=CC[C@H](NC(=O)[C@@H](CCCNC(=N)N)NC(=O)[C@@H](CCCCN)NC(=O)COc1ccc2ccccc2c1-c1c(OCCC(C)C)ccc2ccccc12)C(=O)OCc1ccccc1.Cl.Cl` (atropisomer, axis not shown) [Compound 138], the MIC came out at 31.3 µg/mL in the assay with E.f987; 31.3 µg/mL in the assay with E.f243; 15.6 µg/mL in the assay on E.f449; 3.9 µg/mL in assay [1] (setting [2]); 15.6 µg/mL in the assay with E.f820.
In the case of `C=CCOc1ccc(C[C@H](NC(=O)[C@@H](CCCNC(=N)N)NC(=O)COc2ccc3ccccc3c2-c2c(O)ccc3ccccc23)C(=O)OC)cc1.Cl` (atropisomer, axis not shown) [Compound 121, Methyl(2S,5R)-2-allyloxybenzyl-3,6-diaza-8-(2-[2′-hydroxy-{1,1′}-(S)-binaphthalen-2-yloxy])-5-(3-[guanidino]propyl)-4,7-dioxooctanoate], the MIC is more than 125 µg/mL in the assay with E.f987; 125 µg/mL with E.f243; 125 µg/mL in the assay with E.f449; 7.8 µg/mL in assay [1] (setting [2]); 125 µg/mL in the assay on E.f820.
Turning to `C=CC[C@H](NC(=O)[C@@H](CCCNC(=N)N)NC(=O)[C@@H](CCCCN)NC(=O)COc1ccc2ccccc2c1-c1c(O)ccc2ccccc12)C(=O)OCc1ccccc1.Cl.Cl` (atropisomer, axis not shown) [Compound 136, Benzyl(2S,5R,8R)-2-allyl-3,6,9-triaza-8-(butylamino)-5-(3-guanidinopropyl)-11-(2-[2′-hydroxy-{1,1′}-(S)-binaphthalen-2-yloxy])-4,7,10-trioxoundecanoate dihydrochloride], the MIC was 125 µg/mL in the assay with E.f987; 125 µg/mL in the assay with E.f243; 62.5 µg/mL in the assay on E.f449; 7.8 µg/mL in assay [1] (setting [2]); 62.5 µg/mL in the assay with E.f820.
With `C=CCOC(=O)c1cccc(NC(=O)[C@@H](CCCN)NC(=O)COc2ccc3ccccc3c2-c2c(OCC=C)ccc3ccccc23)c1.Cl` [Compound 159, Allyl(3R)-3-(6-(2-[2′-allyloxy-{1,1′}-(S)-binaphthalen-2-yloxy])-3-(3-aminopropyl)-1,4-diaza-2,5-dioxohexyl)benzoate hydrochloride], in the assay with E.f987, the “Antibacterial activity μg/mL, E.f987” value is more than 125 µg/mL. In addition, in the assay with E.f243, the “Antibacterial activity μg/mL, E.f243” value was determined as 125 µg/mL. In addition, in the assay with E.f449, the “Antibacterial activity μg/mL, E.f449” value is 125 µg/mL. Moreover, the “Antibacterial activity μg/mL, S.a” value in assay [1] (setting [3]) was determined as 62.5 µg/mL. In addition, the “Antibacterial activity μg/mL, E.f820” value in the assay on E.f820 stood at 62.5 µg/mL.
As for `C=CCOC(=O)c1cccc(NC(=O)[C@@H](CCCNC(=N)N)NC(=O)COc2ccc3ccccc3c2-c2c(OCC=C)ccc3ccccc23)c1.Cl` (atropisomer, axis not shown) [Compound 160, Allyl(3R)-3-(6-(2-[2′-allyloxy-{1,1′}-(S)-binaphthalen-2-yloxy])-1,4-diaza-3-(3-guanidinopropyl)-2,5-dioxohexyl)benzoate hydrochloride], the MIC is 125 µg/mL in the assay with E.f987; 62.5 µg/mL with E.f243; 62.5 µg/mL with E.f449; 7.8 µg/mL in assay [1] (setting [2]); 62.5 µg/mL in the assay with E.f820.
Consider `C=CC[C@H](NC(=O)[C@@H](CCCNC(=N)N)NC(=O)OCC1c2ccccc2-c2ccccc21)C(=O)OC.Cl` [Compound 69, Methyl(2S,5R)-2-allyl-3-aza-5-(9H-9-fluorenylmethyloxycarboxamido)-8-(guanidino)-4-oxooctanoate hydrochloride] (Fmoc-[dR]-[AllylGly]-OMe), for which, in assay [1] (Example 2 compounds, 18 h, 37° C., read-out: Antibacterial activity (MIC μg/mL)), the MIC is 125 µg/mL.
With `C=CCOc1ccc2ccccc2c1-c1c(OCC(=O)N[C@H](CCCN)C(=O)Nc2cccc(C(=O)NOCc3ccccc3)c2)ccc2ccccc12.Cl` [Compound 161], the “Antibacterial activity μg/mL, S.a” value in assay [1] (setting [3]) amounted to 15.6 µg/mL. For the same compound, the “Antibacterial activity μg/mL, E.f820” value in the assay with E.f820 is 62.5 µg/mL.
